For five compounds, Ki results are on record in US10160762B2, “6-alkyl dihydropyrazolopyrimidinone compounds as PDE2 inhibitors” (Merck Sharp & Dohme Corp., priority 2015, dated 2018).

The Ki is the dissociation constant of the complex between target and ligand, obtained from inhibition or displacement.

Read-outs that look alike come from different tables or passages of the source.

This test has as its target T1, human PDE2A1 (Homo sapiens, UniProt O00408).
T1 construct: GST; purchased BPS Bioscience (San Diego, Calif.) 60020; host or cells: insect cells
The experiment in a line: IMAP FP PDE assay, human PDE2A1. Format: biochemical. A digest of the protocol: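 GST-tagged human PDE2A1 from insect cells; substrate 50 nM FAM-cAMP containing 1000 nM cGMP in Tris pH 7.2/MgCl2/DTT buffer, enzyme giving 20% conversion. 60 min at room temperature, IMAP binding reagent, fluorescence polarization read. Apparent Ki from FP readings using apparent KM 10,000 nM; ten-point 3-fold titrations.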

Where [1] appears, read: Lab B, read-out: Human PDE2 Ki (nM) Lab B.
The mark [2] stands for this setting: Lab A, read-out: Human PDE2 Ki (nM) Lab A.

T1 sequence (O00408 1-920 isoform O00408-2): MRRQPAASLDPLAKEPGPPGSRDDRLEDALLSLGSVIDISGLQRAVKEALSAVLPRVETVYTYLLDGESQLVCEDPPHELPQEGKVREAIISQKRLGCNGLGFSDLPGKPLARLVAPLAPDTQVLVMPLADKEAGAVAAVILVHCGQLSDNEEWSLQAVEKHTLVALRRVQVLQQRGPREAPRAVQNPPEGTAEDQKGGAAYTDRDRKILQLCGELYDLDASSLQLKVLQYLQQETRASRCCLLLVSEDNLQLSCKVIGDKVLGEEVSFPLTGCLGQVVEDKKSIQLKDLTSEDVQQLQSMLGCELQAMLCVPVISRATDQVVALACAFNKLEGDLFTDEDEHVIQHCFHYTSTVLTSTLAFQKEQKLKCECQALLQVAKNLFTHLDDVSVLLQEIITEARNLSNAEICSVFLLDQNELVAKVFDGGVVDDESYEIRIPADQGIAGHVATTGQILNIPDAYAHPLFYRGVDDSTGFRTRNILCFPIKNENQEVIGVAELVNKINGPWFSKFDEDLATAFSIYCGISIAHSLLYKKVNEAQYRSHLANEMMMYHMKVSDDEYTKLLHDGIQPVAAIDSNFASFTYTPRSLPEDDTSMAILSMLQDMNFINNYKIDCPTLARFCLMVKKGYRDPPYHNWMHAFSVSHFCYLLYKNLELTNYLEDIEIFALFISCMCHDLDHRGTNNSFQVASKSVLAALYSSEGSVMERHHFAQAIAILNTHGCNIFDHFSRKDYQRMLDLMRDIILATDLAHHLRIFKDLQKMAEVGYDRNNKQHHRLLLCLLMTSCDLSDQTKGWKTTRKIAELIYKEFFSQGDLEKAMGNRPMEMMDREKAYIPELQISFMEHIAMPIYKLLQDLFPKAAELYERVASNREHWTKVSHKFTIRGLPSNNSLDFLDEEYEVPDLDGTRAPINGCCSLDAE

As to `Cc1nc2c(c(CF)nn2C(c2ccc(C(F)(F)F)cc2)C(F)(F)F)c(=O)[nH]1` (stereo not drawn) [Example 201, 3-(Fluoromethyl)-6-methyl-1-(2,2,2-trifluoro-1-(4-(trifluoromethyl)phenyl)-ethyl)-1H-pyrazolo[3,4-d]pyrimidin-4(5H)-one], the Ki under setting [1] is 2.6 nM.

As to `CCC(c1ccc(C(F)(F)F)cc1)n1nc(CO)c2c(=O)[nH]c(C)nc21` (single isomer, unassigned) [Example 132, (R)- or (S)-3-(Hydroxymethyl)-6-methyl-1-(1-(4-(trifluoro-methyl)phenyl)propyl)-1H-pyrazolo[3,4-d]pyrimidin-4(5H)-one], the Ki under setting [1] stood at 1.1 nM. For `Cc1nn(C(C)c2ccc(C(F)(F)F)cc2)c2nc(C(C)C)[nH]c(=O)c12` (stereo not drawn) [Example 43, 3-Methyl-6-(1-methylethyl)-1-{1-[4-(trifluoromethyl)phenyl]ethyl}-1,5-dihydro-4H-pyrazolo[3,4-d]pyrimidin-4-one], the Ki under setting [2] is 132 nM. For the compound `Cc1nc2c(c(CO)nn2[C@H](c2ccc(C(C)(C)C)cc2)C(C)C)c(=O)[nH]1` [Example 159, (S)-1-(1-(4-tert-Butylphenyl)-2-methylpropyl)-3-(hydroxymethyl)-6-methyl-1H-pyrazolo[3,4-d]pyrimidin-4(5H)-one], under setting [1], the Ki worked out at 2 nM. Consider `Cc1nc2c(c(CCl)nn2C(c2ccc(C(F)(F)F)cc2)C2CC2)c(=O)[nH]1` (stereo not drawn) [Example 232, 3-(chloromethyl)-1-(cyclopropyl(4-(trifluoromethyl)phenyl)methyl)-6-methyl-1H-pyrazolo[3,4-d]pyrimidin-4(5H)-one], for which the Ki reads like this: under setting [2], 0.27 nM; under setting [1], 0.7 nM.
